Experimental findings from PubChem BioAssay (NCI) are described below.

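A five-concentration, 48-hour dose response in 96-well plates underlies each endpoint, interpolated linearly between surrounding concentrations. At the GI50, growth is halved. The concentration for full growth arrest is given as TGI.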 A value given as a limit tells only on which side of the number the result lay.

The first test has as its system SW-620 colon. Briefly: NCI-60 cell line screen, 48 h.
On to `Nc1ncnc2c1ncn2C=C=CCO`, for which the TGI was over 100 µM.
As to `CN1CCc2[nH]c3ccccc3c2C1`, the TGI was over 100 µM.
The compound `C[C@]12C=CC(=O)C=C1CC[C@@H]1[C@@H]2CC[C@]2(C)OC(=O)CC[C@@H]12` had a TGI of over 496 µM.
Turning to `Nc1ncnc2nc[nH]c12`, the TGI was over 250 µM.
`CN1CCOC(c2ccc(Cl)cc2)O1` (configuration not stated) gave a TGI of over 100 µM.
`CCOc1ccc(NC(=O)C(=O)CC(=O)c2sc(NNC(C)=O)nc2C)cc1` registered a TGI of over 100 µM.

A further test deals with IGROV1 ovarian. Put plainly: NCI-60 cell line screen, 48 h.
`O=C(O)c1cc([N+](=O)[O-])cc2c(=O)c3cnccc3[nH]c12`: the TGI was over 100 µM.
Same read-out and setting: in the case of `CN1CCc2[nH]c3ccccc3c2C1` it was over 100 µM; in that of `C[C@]12C=CC(=O)C=C1CC[C@@H]1[C@@H]2CC[C@]2(C)OC(=O)CC[C@@H]12`, over 475 µM.
Compound `Nc1ncnc2nc[nH]c12` yielded a TGI of over 250 µM.
Turning to `CN1CCOC(c2ccc(Cl)cc2)O1` (configuration not stated), the TGI was over 100 µM.
Same read-out and setting: in the case of `CCOc1ccc(NC(=O)C(=O)CC(=O)c2sc(NNC(C)=O)nc2C)cc1` it was over 100 µM.

For another test, the system named is SF-539 CNS. Put plainly: NCI-60 cell line screen, 48 h.
`CCCCCCCCCCCCCCCCCCOc1ccccc1CC(=O)OCC[N+]1(C)CCCCC1`: the GI50 is 1.97 µM and the TGI amounted to 3.89 µM.
The compound `CN1CCc2[nH]c3ccccc3c2C1` registered a TGI of over 100 µM.
The same measure, in the same setting: in the case of `C[C@]12C=CC(=O)C=C1CC[C@@H]1[C@@H]2CC[C@]2(C)OC(=O)CC[C@@H]12` it was over 476 µM; in that of `Nc1ncnc2nc[nH]c12`, over 250 µM; in that of `CN1CCOC(c2ccc(Cl)cc2)O1` (configuration not stated), over 100 µM.
On the same count and under the same terms, as for `CCOc1ccc(NC(=O)C(=O)CC(=O)c2sc(NNC(C)=O)nc2C)cc1`, the figure is over 100 µM.

A further test concerns NCI-H226 lung. Put plainly: NCI-60 cell line screen, 48 h.
Compound `O=C(O)c1cc([N+](=O)[O-])cc2c(=O)c3cnccc3[nH]c12` displayed a TGI of over 100 µM.
As to `CCCCCCCCCCCCCCCCCCOc1ccccc1CC(=O)OCC[N+]1(C)CCCCC1`, the GI50 is 2.18 µM and the TGI is 6.25 µM.
Take `Nc1ncnc2c1ncn2C=C=CCO`: the TGI was over 100 µM.
Regarding `CN1CCc2[nH]c3ccccc3c2C1`, the TGI was over 100 µM.
In turn, `C[C@]12C=CC(=O)C=C1CC[C@@H]1[C@@H]2CC[C@]2(C)OC(=O)CC[C@@H]12` returned a TGI of over 493 µM.
Regarding `Nc1ncnc2nc[nH]c12`, the TGI was over 250 µM.
Regarding `CN1CCOC(c2ccc(Cl)cc2)O1` (configuration not stated), the TGI was over 100 µM.
`CCOc1ccc(NC(=O)C(=O)CC(=O)c2sc(NNC(C)=O)nc2C)cc1` returned a TGI of over 100 µM.

The next test concerns SK-MEL-28 melanoma. Put plainly: NCI-60 cell line screen, 48 h.
As to `O=C(O)c1cc([N+](=O)[O-])cc2c(=O)c3cnccc3[nH]c12`, the TGI was over 100 µM.
Turning to `CCCCCCCCCCCCCCCCCCOc1ccccc1CC(=O)OCC[N+]1(C)CCCCC1`, the GI50 was 2.51 µM and the TGI is 6.33 µM.
`Nc1ncnc2c1ncn2C=C=CCO` came in with a TGI of over 100 µM.
Regarding `CN1CCc2[nH]c3ccccc3c2C1`, the TGI was over 100 µM.
Compound `C[C@]12C=CC(=O)C=C1CC[C@@H]1[C@@H]2CC[C@]2(C)OC(=O)CC[C@@H]12` came in with a TGI of over 500 µM.
For `Nc1ncnc2nc[nH]c12`, the TGI is over 250 µM.
Compound `CN1CCOC(c2ccc(Cl)cc2)O1` (configuration not stated) showed a TGI of over 100 µM.
Regarding `CCOc1ccc(NC(=O)C(=O)CC(=O)c2sc(NNC(C)=O)nc2C)cc1`, the TGI was over 100 µM.

In another test the test system is UACC-62 melanoma. Briefly: NCI-60 cell line screen, 48 h.
Turning to `O=C(O)c1cc([N+](=O)[O-])cc2c(=O)c3cnccc3[nH]c12`, the TGI is over 100 µM.
`CN1CCc2[nH]c3ccccc3c2C1` had a TGI of over 100 µM.
Turning to `C[C@]12C=CC(=O)C=C1CC[C@@H]1[C@@H]2CC[C@]2(C)OC(=O)CC[C@@H]12`, the TGI is 500 µM.
`Nc1ncnc2nc[nH]c12`: the TGI is over 250 µM.
The same measure, in the same setting: in the case of `CN1CCOC(c2ccc(Cl)cc2)O1` (configuration not stated) it was over 100 µM; in that of `CCOc1ccc(NC(=O)C(=O)CC(=O)c2sc(NNC(C)=O)nc2C)cc1`, over 100 µM.

The test system of another test is SK-MEL-5 melanoma. Briefly: NCI-60 cell line screen, 48 h.
With `O=C(O)c1cc([N+](=O)[O-])cc2c(=O)c3cnccc3[nH]c12`, the TGI is over 100 µM.
`Nc1ncnc2c1ncn2C=C=CCO` yielded a TGI of over 100 µM.
Turning to `CN1CCc2[nH]c3ccccc3c2C1`, the TGI is over 100 µM.
Compound `C[C@]12C=CC(=O)C=C1CC[C@@H]1[C@@H]2CC[C@]2(C)OC(=O)CC[C@@H]12` displayed a TGI of over 477 µM.
`Nc1ncnc2nc[nH]c12` yielded a TGI of over 250 µM.
`CN1CCOC(c2ccc(Cl)cc2)O1` (configuration not stated) yielded a TGI of over 100 µM.
Same read-out and setting: as for `CCOc1ccc(NC(=O)C(=O)CC(=O)c2sc(NNC(C)=O)nc2C)cc1`, the figure is over 100 µM.

A further test deals with NCI-H522 lung. Briefly: NCI-60 cell line screen, 48 h.
Regarding `O=C(O)c1cc([N+](=O)[O-])cc2c(=O)c3cnccc3[nH]c12`, the TGI was over 100 µM.
`CN1CCc2[nH]c3ccccc3c2C1` had a TGI of over 100 µM.
Turning to `C[C@]12C=CC(=O)C=C1CC[C@@H]1[C@@H]2CC[C@]2(C)OC(=O)CC[C@@H]12`, the TGI amounted to 457 µM.
Still for that read-out and setting: as for `Nc1ncnc2nc[nH]c12`, the figure is 220 µM.
In the case of `CN1CCOC(c2ccc(Cl)cc2)O1` (configuration not stated), the TGI is over 100 µM.
`CCOc1ccc(NC(=O)C(=O)CC(=O)c2sc(NNC(C)=O)nc2C)cc1` displayed a TGI of over 100 µM.

The next test concerns KM12 colon. Put plainly: NCI-60 cell line screen, 48 h.
`O=C(O)c1cc([N+](=O)[O-])cc2c(=O)c3cnccc3[nH]c12` yielded a TGI of over 100 µM.
With `Nc1ncnc2c1ncn2C=C=CCO`, the TGI is over 100 µM.
Turning to `CN1CCc2[nH]c3ccccc3c2C1`, the TGI was over 100 µM.
Same read-out and setting: in the case of `C[C@]12C=CC(=O)C=C1CC[C@@H]1[C@@H]2CC[C@]2(C)OC(=O)CC[C@@H]12` it was over 500 µM; in that of `Nc1ncnc2nc[nH]c12`, over 158 µM.
In turn, `CN1CCOC(c2ccc(Cl)cc2)O1` (configuration not stated) registered a TGI of over 100 µM.
Turning to `CCOc1ccc(NC(=O)C(=O)CC(=O)c2sc(NNC(C)=O)nc2C)cc1`, the TGI is over 100 µM.

The test system of the next test is OVCAR-5 ovarian. Briefly: NCI-60 cell line screen, 48 h.
The compound `O=C(O)c1cc([N+](=O)[O-])cc2c(=O)c3cnccc3[nH]c12` registered a TGI of over 100 µM.
As for `CCCCCCCCCCCCCCCCCCOc1ccccc1CC(=O)OCC[N+]1(C)CCCCC1`, the GI50 was 2.32 µM and the TGI amounted to 7.49 µM.
`Nc1ncnc2c1ncn2C=C=CCO` registered a TGI of over 100 µM.
For the compound `CN1CCc2[nH]c3ccccc3c2C1`, the TGI was over 100 µM.
As for `C[C@]12C=CC(=O)C=C1CC[C@@H]1[C@@H]2CC[C@]2(C)OC(=O)CC[C@@H]12`, the TGI is over 500 µM.
The same measure, in the same setting: in the case of `Nc1ncnc2nc[nH]c12` it was over 250 µM; in that of `CN1CCOC(c2ccc(Cl)cc2)O1` (configuration not stated), over 100 µM; in that of `CCOc1ccc(NC(=O)C(=O)CC(=O)c2sc(NNC(C)=O)nc2C)cc1`, over 100 µM.

The next test deals with HOP-92 NSCLC. Put plainly: NCI-60 cell line screen, 48 h.
Turning to `CCCCCCCCCCCCCCCCCCOc1ccccc1CC(=O)OCC[N+]1(C)CCCCC1`, the GI50 was 1.32 µM and the TGI turned out to be 3.35 µM.
On to `Nc1ncnc2c1ncn2C=C=CCO`, for which the TGI is over 100 µM.
Compound `CN1CCc2[nH]c3ccccc3c2C1` showed a TGI of over 100 µM.
As to `C[C@]12C=CC(=O)C=C1CC[C@@H]1[C@@H]2CC[C@]2(C)OC(=O)CC[C@@H]12`, the TGI was found to be 500 µM.
`Nc1ncnc2nc[nH]c12` had a TGI of over 250 µM.
`CN1CCOC(c2ccc(Cl)cc2)O1` (configuration not stated): the TGI was over 100 µM.
Take `CCOc1ccc(NC(=O)C(=O)CC(=O)c2sc(NNC(C)=O)nc2C)cc1`: the TGI is over 100 µM.

A further test has as its system U251 CNS. Put plainly: NCI-60 cell line screen, 48 h.
The compound `O=C(O)c1cc([N+](=O)[O-])cc2c(=O)c3cnccc3[nH]c12` gave a TGI of over 100 µM.
`Nc1ncnc2c1ncn2C=C=CCO` came in with a TGI of over 100 µM.
Regarding `CN1CCc2[nH]c3ccccc3c2C1`, the TGI is over 100 µM.
Consider `C[C@]12C=CC(=O)C=C1CC[C@@H]1[C@@H]2CC[C@]2(C)OC(=O)CC[C@@H]12`, for which the TGI was over 500 µM.
For `Nc1ncnc2nc[nH]c12`, the TGI is over 250 µM.
Regarding `CN1CCOC(c2ccc(Cl)cc2)O1` (configuration not stated), the TGI is over 100 µM.
`CCOc1ccc(NC(=O)C(=O)CC(=O)c2sc(NNC(C)=O)nc2C)cc1` came in with a TGI of over 100 µM.

The subject of another test is NCI-H460 lung. Briefly: NCI-60 cell line screen, 48 h.
In turn, `O=C(O)c1cc([N+](=O)[O-])cc2c(=O)c3cnccc3[nH]c12` registered a TGI of over 100 µM.
For `CCCCCCCCCCCCCCCCCCOc1ccccc1CC(=O)OCC[N+]1(C)CCCCC1`, the GI50 was 2.34 µM and the TGI came to 5.43 µM.
With `Nc1ncnc2c1ncn2C=C=CCO`, the TGI was over 100 µM.
As to `CN1CCc2[nH]c3ccccc3c2C1`, the TGI was over 100 µM.
For `C[C@]12C=CC(=O)C=C1CC[C@@H]1[C@@H]2CC[C@]2(C)OC(=O)CC[C@@H]12`, the TGI is over 500 µM.
With `Nc1ncnc2nc[nH]c12`, the GI50 is 21.3 µM and the TGI was over 250 µM.
For the compound `CN1CCOC(c2ccc(Cl)cc2)O1` (configuration not stated), the TGI is over 100 µM.
With `CCOc1ccc(NC(=O)C(=O)CC(=O)c2sc(NNC(C)=O)nc2C)cc1`, the TGI is over 100 µM.
